US11395803B2, “Composition for controlled release of physiologically active substances and process for its preparation” (BIOSCREEN TECHNOLOGIES S.R.L., priority 2017, dated 2022)

Experiments:
[1] = Total bioavailability, in vitro (combination of ruminal bypass and post-ruminal digestibility, Boisen method)
[2] = Post-ruminal digestibility, in vitro (pharmaceutical dissolver, Boisen Test)
Description: Whereas, the term “post-ruminal digestibility” of a substance means the percentage amount by weight of substance that is freed from the coating exclusively in the post-ruminal tract, dissolving and so making it digestible or absorbable, with respect to the total amount by weight of the orally administered substance.
The experimental conditions of use were 39° C., 15 rpm, 8 hours presence in the solution with “ruminal” pH of about 6.8. • Daisy^II ANKOM: commercially available laboratory artificial rumen, for determining the degree of ruminal bypass. The experimental conditions of use were 39° C., 8 hours presence in ruminal conditions, buffer solution at “ruminal” pH with insertion of “ruminal inoculum” and re-creation of ruminal anaerobiosis according to a university procedure known to those skilled in the art. The pH normally tested in the quality control phase is 6.8. • Pharmaceutical dissolver for determining the degree of post-ruminal digestibility. The experimental conditions of use followed the procedure known to experts in the field as “Boisen Test” and, in particular, they were: • 39° C., 30 rpm, 2 h, buffer solution with “gastric” pH (2.0)+pepsin inoculum. • 39° C., 30 rpm, 4 h, buffer solution with “intestinal” pH (6.8)+pancreatine inoculum. • 39° C., 30 rpm, 18 h, buffer solution with “intestinal” pH (6.8)+lipase and bile extract inoculum. […]

[3] = Degree of ruminal bypass, in vitro (pharmaceutical dissolver / Daisy II ANKOM artificial rumen)
Description: In the context of the present invention, the term “ruminal by-pass” indicates the percentage amount by weight of substance reaching the animal post-ruminal area, namely the stomach and the intestine, with respect to the total amount by weight of the orally administered substance.
The experimental conditions of use were 39° C., 15 rpm, 8 hours presence in the solution with “ruminal” pH of about 6.8. • Daisy^II ANKOM: commercially available laboratory artificial rumen, for determining the degree of ruminal bypass. The experimental conditions of use were 39° C., 8 hours presence in ruminal conditions, buffer solution at “ruminal” pH with insertion of “ruminal inoculum” and re-creation of ruminal anaerobiosis according to a university procedure known to those skilled in the art. The pH normally tested in the quality control phase is 6.8. • Pharmaceutical dissolver for determining the degree of post-ruminal digestibility. The experimental conditions of use followed the procedure known to experts in the field as “Boisen Test” and, in particular, they were: • 39° C., 30 rpm, 2 h, buffer solution with “gastric” pH (2.0)+pepsin inoculum. • 39° C., 30 rpm, 4 h, buffer solution with “intestinal” pH (6.8)+pancreatine inoculum. • 39° C., 30 rpm, 18 h, buffer solution with “intestinal” pH (6.8)+lipase and bile extract inoculum.
Then the microgranules were subjected to an evaluation of the degree of ruminal by-pass, post-ruminal digestibility and total bioavailability using the Boisen method. For a complete description of the Boisen method, reference is made to the publication S. Boisen, J. A. Fernàndez “Prediction of total tract digestibility of energy feedstuffs and […] by in vitro analyses” Animal Feed Science Technology 68, 277-286, 1997.

[4] = theoretical administration of 100 g of choline chloride
[5] = theoretical administration of 200 g of product

C[N+](C)(C)CCO.[Cl-] [Product A, choline chloride]
Bioavailable Choline Chloride [1, 4]: 0 g | Bioavailable Choline Chloride [1, 5]: 0 g | Choline Chloride in faeces [2, 4]: 0 g | Choline Chloride in faeces [2, 5]: 0 g | Bypassed Choline Chloride [3, 4]: 0 g | Choline Chloride lost in the rumen in 8 h [3, 4]: 101 g | Bypassed Choline Chloride [3, 5]: 0 g | Choline Chloride lost in the rumen in 8 h [3, 5]: 198 g
